Test results published in article PMC10996005, “Identification and Development of Cyclic Peptide Inhibitors of Hypoxia Inducible Factors 1 and 2 That Disrupt Hypoxia-Response Signaling in Cancer Cells” (Journal of the American Chemical Society, 2024).
Where a SMILES comes first, the peptide text is derived from it. [ ]: non-standard residue; d: D form. Phe(4-Br) = N[C@@H](Cc1ccc(Br)cc1)C(=O)O; Phe(4-CN) = N#Cc1ccc(C[C@H](N)C(=O)O)cc1; Phe(4-F) = N[C@@H](Cc1ccc(F)cc1)C(=O)O; Phe(4-I) = N[C@@H](Cc1ccc(I)cc1)C(=O)O; 4Pal = N[C@@H](Cc1ccncc1)C(=O)O; Pen = CC(C)(S)[C@H](N)C(=O)O; Nva = CCC[C@H](N)C(=O)O; Aib = CC(C)(N)C(=O)O

Tests used:
HIF-1α PAS-B domain = target: T1, HIF-1α PAS-B domain (Homo sapiens, UniProt Q16665); assay: MST binding to the PAS-B domain of HIF-1α; settings: for Kd: MST, mean ± SEM, n = 2 (n = 1 for most C1 analogues, n = 3 in Figure S2), read-out: KD for HIF-1α PAS-B; for loss of affinity (KD) compared to cyclo-CRLIIF: MST KD ratio
T1 construct: made in house
T1 sequence (Q16665 238-349 limits assumed): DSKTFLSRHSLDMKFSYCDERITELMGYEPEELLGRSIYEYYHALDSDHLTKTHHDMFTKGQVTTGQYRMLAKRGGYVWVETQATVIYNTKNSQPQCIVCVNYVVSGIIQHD
Description: (§1) All reagents were purchased from Fisher Scientific or Sigma Aldrich UK unless specified otherwise.
(§2) Restriction enzymes and microbiology reagents were purchased from New England Biolabs Inc., Fisher Scientific (UK) or Promega (UK) and were used as directed by the manufacturer. Primers and oligonucleotides were synthesised by Integrated DNA Technologies (UK). DNA sequencing was carried out by Eurofins MWG Operon (Germany).
(§3) Construction of the RTHS and SICLOPPS library, screening, purification of recombinant HIF proteins, and the PLA was conducted as previously described in Miranda et al., J. Am. Chem. Soc., 2013, 135(28); […]
(§4) Protein labelling with MST dye
(§5) Protein was buffer exchanged from storage buffer into labelling buffer (0.1 M NaHCO3, pH 8.5) using a PD spintrap G-25 column (GE healthcare). The protein concentration was then adjusted to 20 µM.
(§6) The commercially sourced MST dye (NanoTemper) was prepared as a 470 µM solution in DMSO, which was then further diluted to 60 µM using labelling buffer. To the protein solution was added an equal volume of dye solution, and the labelling reaction was left for 1 hour in the dark at room temperature.
(§7) The labelled protein was separated from unreacted dye by elution through a PD minitrap G-25 column (GE healthcare). Labelled protein was then aliquoted and stored at -80 °C. Extent of labelling was measured by the absorbance obtained using the UV-vis mode on a NanoDrop ND-1000 Spectrophotometer (NanoDrop Technologies, USA).
(§8) Labelled protein was thawed on ice and diluted to 50 nM in assay buffer containing 50 mM Tris pH 8.0, 150 mM NaCl, 5% (v/v) glycerol, 1 mM TCEP and 0.05% TWEEN-20. The protein solution was then centrifuged at 12000 rpm for 15 minutes at 4 °C and left on ice. Compounds were prepared and serially diluted in DMSO at 10x assay concentration, before diluting to 2x assay concentration in assay buffer.
(§9) The 2x compound solutions were then mixed 1:1 (v/v) with 50 nM labelled protein solution and left to incubate for 1 hour at room temperature. Solutions were then loaded into Monolith NT.115 Premium Capillaries (NanoTemper) and placed in the sample tray. MST experiments were carried out

HIF-2α PAS-B domain = target: T2, HIF-2α PAS-B domain (Homo sapiens, UniProt Q99814); assay: MST binding to the PAS-B domain of HIF-2α; settings: MST; mean (n = 2) ± SEM
T2 construct: made in house
T2 sequence (Q99814 240-350 limits assumed): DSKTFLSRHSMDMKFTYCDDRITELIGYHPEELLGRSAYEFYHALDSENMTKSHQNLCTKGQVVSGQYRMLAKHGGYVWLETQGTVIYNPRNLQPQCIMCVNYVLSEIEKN
Description: as §1, §2, §3, §4, §5, §6, §7, §8, §9

Kd (HIF-1α PAS-B domain)	SMILES	also measured
> 50 µM	CC[C@H](C)[C@@H]1NC(=O)[C@H](CC(C)C)NC(=O)[C@H](CCCNC(=N)N)NC(=O)[C@H](CSC)NC(=O)[C@H](Cc2ccccc2)NC(=O)[C@H]([C@@H](C)CC)NC1=O [C(Me), cyclo-C(Me)RLIIF] (cyclo(C(Me)RLIIF))	
1.7 ± 0.2 µM	CC[C@H](C)[C@@H]1NC(=O)[C@H](CC(C)C)NC(=O)[C@H](CCCNC(=N)N)NC(=O)[C@H](CS)NC(=O)[C@H](Cc2ccc(F)cc2)NC(=O)[C@H]([C@@H](C)CC)NC1=O [F, cyclo-CRLII(4-F)F] (cyclo(CRLII[Phe(4-F)]))	
5.7 ± 0.9 µM	CC[C@H](C)[C@@H]1NC(=O)[C@H](CC(C)C)NC(=O)[C@H](CCCNC(=N)N)NC(=O)[C@H](C(C)(C)S)NC(=O)[C@H](Cc2ccccc2)NC(=O)[C@H]([C@@H](C)CC)NC1=O [Pen, cyclo-PenRLIIF] (cyclo(F[Pen]RLII))	

The remaining lines, values behind:

SMILES	Kd (HIF-1α PAS-B domain)	also measured
CC[C@H](C)[C@@H]1NC(=O)[C@H](CC(C)C)NC(=O)[C@H](CCCNC(=N)N)NC(=O)[C@H](CS)NC(=O)[C@H](Cc2ccc(Br)cc2)NC(=O)[C@H]([C@@H](C)CC)NC1=O [Br, cyclo-CRLII(4-Br)F] (cyclo(CRLII[Phe(4-Br)]))	1 ± 0.2 µM	
CCC[C@@H]1NC(=O)[C@H]([C@@H](C)CC)NC(=O)[C@H](CC(C)C)NC(=O)[C@H](CCCNC(=N)N)NC(=O)[C@H](CS)NC(=O)[C@H](Cc2ccccc2)NC1=O [Nva, cyclo-CRLINvaF] (cyclo(CRLI[Nva]F))	22.1 ± 2.6 µM	
CC[C@H](C)[C@@H]1NC(=O)[C@H](CC(C)C)NC(=O)[C@H](CCCNC(=N)N)NC(=O)[C@H](CS)NC(=O)[C@H](Cc2ccncc2)NC(=O)[C@H]([C@@H](C)CC)NC1=O [4-Pal, cyclo-CRLII(4-Pal)] (cyclo([4Pal]CRLII))		loss of affinity (KD) compared to cyclo-CRLIIF (HIF-1α PAS-B domain): ~11 fold
CC[C@H](C)[C@@H]1NC(=O)[C@H](CC(C)C)NC(=O)[C@H](CCCNC(=N)N)NC(=O)[C@H](CS)NC(=O)[C@H](Cc2ccccc2)NC(=O)[C@H]([C@@H](C)CC)NC1=O [cyclo-CRLIIF] (cyclo(CRLIIF))		Kd (HIF-2α PAS-B domain): 10.9 ± 1.1 µM
CC[C@H](C)[C@@H]1NC(=O)[C@H](CC(C)C)NC(=O)[C@H](C)NC(=O)[C@H](CS)NC(=O)[C@H](Cc2ccccc2)NC(=O)[C@H]([C@@H](C)CC)NC1=O [cyclo-CALIIF] (cyclo(ALIIFC))	30.6 ± 0.3 µM	Kd (HIF-2α PAS-B domain): 12.5 ± 0.4 µM
CC[C@H](C)[C@@H]1NC(=O)[C@H](CC(C)C)NC(=O)[C@H](CCCNC(=N)N)NC(=O)[C@H](CS)NC(=O)[C@H](C)NC(=O)[C@H]([C@@H](C)CC)NC1=O [cyclo-CRLIIA]	80.2 ± 27.3 µM	Kd (HIF-2α PAS-B domain): > 100 µM
CC[C@H](C)[C@H](NC(C)=O)C(=O)N[C@@H](Cc1ccc(I)cc1)C(=O)N[C@@H](CS)C(N)=O [Ac-I(4-iodo)FC-NH2] (Ac-Ile-[Phe(4-I)]-Cys-NH2)	21.5 ± 3 µM	improvement in HIF-1α affinity over the parent tripeptide (HIF-1α PAS-B domain; MST KD ratio vs Ac-IFC-NH2): ~3 fold
CC[C@H](C)[C@@H]1NC(=O)[C@H](CC(C)C)NC(=O)[C@H](CCCNC(=N)N)NC(=O)[C@H](CS)NC(=O)[C@H](Cc2ccc(C#N)cc2)NC(=O)[C@H]([C@@H](C)CC)NC1=O [CN, cyclo-CRLII(4-CN)F] (cyclo(CRLII[Phe(4-CN)]))	4.4 ± 0.1 µM	
CC[C@H](C)[C@H](NC(C)=O)C(=O)N[C@@H](Cc1ccccc1)C(=O)N[C@@H](CS)C(N)=O [Ac-IFC-NH2] (Ac-Ile-Phe-Cys-NH2)		loss of affinity (KD) compared to cyclo-CRLIIF (HIF-1α PAS-B domain): ~10 fold
CC[C@H](C)[C@@H]1NC(=O)[C@H](CC(C)C)NC(=O)[C@H](CCCNC(=N)N)NC(=O)[C@H](CS)NC(=O)[C@H](Cc2ccc(O)cc2)NC(=O)[C@H]([C@@H](C)CC)NC1=O [OH, cyclo-CRLIIY] (cyclo(CRLIIY))	7.4 ± 0.1 µM	
CC[C@H](C)[C@@H]1NC(=O)[C@H](CC(C)C)NC(=O)[C@H](CCCNC(=N)N)NC(=O)[C@H](CS)NC(=O)[C@H](Cc2ccccc2)NC(=O)[C@H](C(C)C)NC1=O [V, cyclo-CRLIVF] (cyclo(CRLIVF))	15.9 ± 0.3 µM	
CC[C@H](C)[C@@H]1NC(=O)[C@H](CC(C)C)NC(=O)[C@H](CCCNC(=N)N)NC(=O)[C@H](CS)NC(=O)[C@H](Cc2ccccc2)NC(=O)C(C)(C)NC1=O [Aib, cyclo-CRLIAibF] (cyclo([Aib]FCRLI))	22.4 ± 0.1 µM	
